Data taken from patent publication US20240391889A1, “ANTIMICROBIAL COMPOUNDS AND THE METHODS OF USE” (priority 2021, published 2024).
Values after ≈ are worked out from the molar mass of the structure shown. Read-outs that look alike come from different tables or passages of the source. Numbered stars: 1 amine (or outer) side, 2 acyl side, 3 side chain; on linkers, the order of the positions; unused ones are H or OH. Square brackets hold non-standard residues; d marks the D form. Peptide text beside a SMILES is read from it. N(tridecyl)Gly = CCCCCCCCCCCCCNCC(=O)O; X1 = CC(c1ccccc1)N(CC(=O)[*:2])[*:1]; NFurfurylGly = O=C(O)CNCc1ccco1; Gly(N(CH2)3NH2) = NCCCNCC(=O)O; Nphe = O=C(O)CNCc1ccccc1; NPrGly = CCCNCC(=O)O; Nlys = NCCCCNCC(=O)O

Key:
C. albicans = format: cell-based, Candida albicans
Description: One of the most serious crises facing both new and existing antimicrobial compounds is the rapid development of resistance by pathogens to that compound, rendering it useless. This has been an issue observed with all major commercially available antimicrobial drugs and is an increasingly prevalent issue with antifungal drugs (Clatworthy et al., Nat. Chem. Biol. 3, 541-548 (2007); Wiederhold et al., Infect. Drug Resist. 10, 249-259 (2017)). The ability of C. albicans to gain resistance against RMG9-11 was evaluated using two techniques; serial and single passage. Ching et al. described a method for single passage assessment of gain of resistance, which was used here with RMG9-11 (Ching et al., Sci. Rep. 10, 8754 (2020)). Briefly, a single colony of C. albicans was incubated overnight in RPMI-MOPS. Fungal cultures were then incubated for either 24 or 48 hours with concentrations of RMG9-11 ranging from 0 to 80% MIC. […] To further solidify this finding, C. albicans were introduced to increasing concentrations of RMG9-11 through a serial passage gain of resistance assay, as described by Samuelsen et al. (Samuelsen et al., FEBS Lett. 579, 3421-3426 (2005)). […] One main difference between serial and single passage assays is in the inoculation method from one passage to the next. The single passage relies on one individual colony while the serial passage focuses on a set concentration of fungi (cells/mL). At the end of serial passage, C. albicans that had been exposed to gradually increasing concentrations of RMG9-11 were used to prepare a traditional MIC assay. In theory, if fungi had evolved resistance during serial passage with sub-MIC antifungal agent, the MIC of RMG9-11 against these fungi should increase. […] To our knowledge, this is the first evaluation of the ability of a microbe to gain resistance to a peptoid, though it has long been hypothesized that gaining resistance to peptoids is unlikely.
A second gain of resistance through single passage was done for RMG9-11 against C. albicans following previously published methods as a confirmation of serial passage results (Ching et al., Sci. Rep. 10, 8754 (2020)). A single C. albicans colony was inoculated into RPMI-MOPS (pH 7; 5 mL) and incubated overnight (200 RPM; 37° C.). […] The following day, an MIC was performed with these cell solutions to evaluate gain of resistance after 48 hours. This assay was performed with four separate streaked plates from frozen stocks for biological replicate.

C. krusie = format: cell-based, Candida krusie
HepG2 liver cells = test: in vitro; format: cell-based
Experimental: (§1) The mammalian cell lines that were tested (HepG2, 3T3, and HaCat) were incubated with RMG9-11 for 72 hours and cell viability was determined via mitochondrial activity using an MTT reduction assay where viable cells reduce MTT to formazan. Toxicity is reported as the concentration of the peptoid that results in a 50% reduction in viable cells, termed toxicity dose 50% or TD50. […] SR is defined as the TD50 divided by MIC and provides a measure of the therapeutic window for a compound. Typically for most lead compounds that would continue through development and optimization, a SR of 10 is preferred while an SR of 100 is more desirable for a compound moving into preclinical animal model evaluation.
(§2) Hepatocellular carcinoma (HepG2), mouse fibroblast (3T3), and human keratinocyte (HaCat) cells were cultured in Dulbeco modified eagle media (DMEM) containing 10% fetal bovine serum (FBS) and 1% penicillin, streptomycin, and glutamine (PSG) at 37° C. and 5% CO2. Cells were collected and adjusted to […] to 4×10^5 cells/mL in phenol-red free DMEM and plated (100 μL) 96 well plates. 2-fold serial dilutions of 10× peptoid (11.1 μL) were added to each well in triplicate. Water (vehicle) was used as a negative control. Plates were incubated at 37° C. in 5% CO2 for 72 hours. Thiazolyl blue tetrazolium bromide (MTT) was added to each well (5 mg/mL; 20 μL) and incubated for 3 hours. Media was removed, DMSO (100 μL) was added, and plates were incubated at 37° C. for 10 minutes. Plates were read on a SPECTRAMAX M5 plate reader (Abs. 570 nm). The concentration of compound resulting in a 50% reduction in growth compared to control (toxicity dose 50%; TD50) was determined using GRAFIT. This procedure was repeated three times on separate days.

in vitro = format: cell-based, human
Experimental: as §1, §2

[1] = tested on: human keratinocyte (HaCat) cells; test: in vitro; format: cell-based
Experimental: as §1, §2

[2] = tested on: mouse fibroblast (3T3) cells; test: in vitro; format: cell-based
Experimental: as §1, §2

C. parapsilosis = format: cell-based, Candida parapsilosis

With `CCCCCCCCCCCCCNCC(=O)N(CCC)CC(=O)N(CC(=O)N(CCCCN)CC(=O)N(CC(=O)N(CC(=O)N(CCCN)CC(N)=O)Cc1ccccc1)Cc1ccco1)C(C)c1ccccc1` (centres unmarked) [RMG9-11] (H-[N(tridecyl)Gly][NPrGly][X1][Nlys][NFurfurylGly][Nphe][Gly(N(CH2)3NH2)]-NH2) the “Single Passage 24 h MIC” value (C. albicans; C. albicans pre-exposed 24 h to 0% MIC RMG9-11) was 6.25 µg/mL, the “Single Passage 24 h MIC” value (C. albicans; pre-exposed 24 h to 10% MIC) was 6.25 µg/mL and the “Single Passage 24 h MIC” value (C. albicans; pre-exposed 24 h to 20% MIC) was 6.25 µg/mL. The “Single Passage 24 h MIC” value (C. albicans; pre-exposed 24 h to 40% MIC) was 6.25 µg/mL, the “Single Passage 24 h MIC” value (C. albicans; pre-exposed 24 h to 60% MIC) was 6.25 µg/mL and the “Single Passage 24 h MIC” value (C. albicans; pre-exposed 24 h to 80% MIC) was 6.25 µg/mL. For the same molecule, the “Single Passage 48 h MIC” value (C. albicans; pre-exposed 48 h to 0% MIC) was 6.25 µg/mL, the “Single Passage 48 h MIC” value (C. albicans; pre-exposed 48 h to 10% MIC) was 6.25 µg/mL and the “Single Passage 48 h MIC” value (C. albicans; pre-exposed 48 h to 20% MIC) was 6.25 µg/mL. For the same molecule, the “Single Passage 48 h MIC” value (C. albicans; pre-exposed 48 h to 40% MIC) was 6.25 µg/mL, the “Single Passage 48 h MIC” value (C. albicans; pre-exposed 48 h to 60% MIC) was 6.25 µg/mL and the “Single Passage 48 h MIC” value (C. albicans; pre-exposed 48 h to 80% MIC) was 6.25 µg/mL. For the same molecule, the “ability of C. albicans to develop resistance” value (C. albicans; single passage, in words) was “unable to develop resistance”, the “MIC C. krusie” value (C. krusie) was 3.13 µg/mL (≈ 3 µM) and the “toxicity at the MIC against C. albicans, HepG2” value (HepG2 liver cells) was “no toxicity”. It also gave a CC50 at 72 h (in vitro; human, HaCat human keratinocyte cells) of 53 ± 5 µg/mL (≈ 50.8 µM), a CC50 at 72 h (in vitro; human, HepG2 hepatocellular carcinoma cells) of 114 ± 5 µg/mL (≈ 109 µM) and a CC50 at 72 h (in vitro; mouse, 3T3 mouse fibroblast cells) of 39 ± 2 µg/mL (≈ 37.4 µM). For the same molecule, the “TD50 HaCat” value [1] was 53 µg/mL, the “toxicity at the MIC, HaCat” value [1] was “minimal” and the “TD50 3T3” value [2] was 39 µg/mL. For the same molecule, the “toxicity at the MIC, 3T3” value [2] was “minimal” and the “MIC C. parapsilosis” value (C. parapsilosis) was 6.25 µg/mL (≈ 5.99 µM).
